Measured values published in ChEMBL document CHEMBL5321192, “Synthesis and screening of novel 4-N-heterocyclic-2-aryl-6,7,8-trimethoxyquinazolines as antiproliferative and tubulin polymerization inhibitors” (Bioorg Med Chem, 2022).
Active and inactive are the calls of the source. The rule behind the calls is not given here.

Experiments:
[1] = system: HT-29; assay: Antiproliferative activity against human HT-29 cells assessed as cell growth inhibition incubated for 48 hrs by MTT assay; format: functional, cell-based; conditions: HT-29, 48 h
[2] = system: MCF7; assay: Induction of apoptosis in human MCF7 cells assessed as viable cells at 10 uM incubated for 48 hrs by Annexin V-FITC/propidium iodide staining based flow cytometric analysis; format: functional; conditions: read-out: Activity
[3] = system: MCF7; assay: Induction of apoptosis in human MCF7 cells assessed as necrotic cells at 10 uM incubated for 48 hrs by Annexin V-FITC/propidium iodide staining based flow cytometric analysis (reference value: 1.3 %); format: functional
[4] = Cytotoxicity against human HEK293T cells assessed as cell growth inhibition incubated for 48 hrs by MTT assay; format: toxicity, cell-based, HEK-293T
[5] = system: MCF7; assay: Induction of apoptosis in human MCF7 cells assessed as early apoptotic cells at 10 uM incubated for 48 hrs by Annexin V-FITC/propidium iodide staining based flow cytometric analysis (reference value: 2.4 %); format: functional
[6] = system: MCF7; assay: Induction of apoptosis in human MCF7 cells assessed as late apoptotic cells at 10 uM incubated for 48 hrs by Annexin V-FITC/propidium iodide staining based flow cytometric analysis (reference value: 3.4 %); format: functional
[7] = system: MCF7; assay: Induction of cell cycle arrest in human MCF7 cells assessed as accumulation of cells at S phase at 10 uM incubated for 48 hrs by propidium iodide staining based flow cytometer analysis (reference value: 14.6 %); format: functional
[8] = system: MCF7; assay: Induction of cell cycle arrest in human MCF7 cells assessed as accumulation of cells at G1/G0 phase at 10 uM incubated for 48 hrs by propidium iodide staining based flow cytometer analysis (reference value: 53.8 %); format: functional
[9] = system: HeLa; assay: Antiproliferative activity against human HeLa cells assessed as cell growth inhibition incubated for 48 hrs by MTT assay; format: functional, cell-based
[10] = system: MCF7; assay: Induction of cell cycle arrest in human MCF7 cells assessed as accumulation of cells at G2/M phase at 10 uM incubated for 48 hrs by propidium iodide staining based flow cytometer analysis (reference value: 31.9 %); format: functional
[11] = system: Cell membrane; assay: Induction of mitochondrial membrane potential depolarization in human MCF7 cells at 10 uM incubated for 48 hrs by JC-1 staining based microplate reader assay; format: subcellular
[12] = system: MCF7; assay: Antiproliferative activity against human MCF7 cells assessed as cell growth inhibition incubated for 48 hrs by MTT assay; format: functional, cell-based; conditions: MCF7, 48 h
[13] = biological target: T1, Tubulin (Sus scrofa) (UniProt P02554+P02550); assay: Inhibition of porcine brain tubulin polymerization at 100 nM incubated for 60 mins in presence of GTP by spectrophotometric analysis; format: tissue-based
T1 sequence (P02550 whole entry, looked up): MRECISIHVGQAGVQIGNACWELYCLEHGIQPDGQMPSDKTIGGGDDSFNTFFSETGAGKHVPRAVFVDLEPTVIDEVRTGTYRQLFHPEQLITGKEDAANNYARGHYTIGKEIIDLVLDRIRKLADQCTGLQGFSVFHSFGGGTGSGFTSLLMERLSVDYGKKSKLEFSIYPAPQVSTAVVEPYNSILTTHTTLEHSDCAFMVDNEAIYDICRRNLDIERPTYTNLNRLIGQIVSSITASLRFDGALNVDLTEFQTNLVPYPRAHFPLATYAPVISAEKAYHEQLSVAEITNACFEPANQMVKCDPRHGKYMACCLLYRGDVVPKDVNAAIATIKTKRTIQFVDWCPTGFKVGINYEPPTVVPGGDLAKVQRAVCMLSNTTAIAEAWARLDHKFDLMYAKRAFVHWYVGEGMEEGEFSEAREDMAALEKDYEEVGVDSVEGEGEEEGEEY
T1 sequence (P02554 whole entry, looked up): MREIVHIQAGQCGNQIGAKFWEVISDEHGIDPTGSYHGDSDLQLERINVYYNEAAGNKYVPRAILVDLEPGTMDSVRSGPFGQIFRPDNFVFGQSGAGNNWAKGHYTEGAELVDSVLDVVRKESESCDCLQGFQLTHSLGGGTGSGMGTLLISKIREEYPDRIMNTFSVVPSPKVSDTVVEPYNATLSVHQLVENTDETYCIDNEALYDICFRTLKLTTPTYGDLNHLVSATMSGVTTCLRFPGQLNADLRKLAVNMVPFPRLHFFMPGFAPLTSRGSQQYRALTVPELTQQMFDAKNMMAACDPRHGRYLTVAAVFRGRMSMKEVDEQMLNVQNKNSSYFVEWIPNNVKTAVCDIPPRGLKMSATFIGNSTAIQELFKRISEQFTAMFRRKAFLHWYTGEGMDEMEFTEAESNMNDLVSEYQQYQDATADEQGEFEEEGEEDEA

[14] = biological target: T1, Tubulin (Sus scrofa); assay: Inhibition of porcine brain tubulin polymerization incubated for 60 mins in presence of GTP by spectrophotometric analysis; format: tissue-based
[15] = biological target: T1, Tubulin (Sus scrofa); assay: Inhibition of porcine brain tubulin polymerization at 3 uM incubated for 60 mins in presence of GTP by spectrophotometric analysis; format: tissue-based

Row | SMILES | IC50 [1] | IC50 at 48 h [4] | IC50 [9] | IC50 [12] | further results
1 | COc1cc2c(-n3ccnc3)nc(-c3ccc(Br)cc3)nc2c(OC)c1OC | 6.76 µM | > 25 µM | 17.4 µM | 6.37 µM | viability at 10 µM [2]: 11.8%; Activity [3]: 7.9%; Activity [5]: 9.4%; Activity [6]: 70.9%; Activity [7]: 8.5%; Activity [8]: 70.3%; Activity [10]: 17.7%; Activity [11]: inactive
2 | COc1cc2c(-n3cnnc3)nc(-c3ccccc3C(F)(F)F)nc2c(OC)c1OC | 11.8 µM | > 25 µM | > 25 µM | 13.7 µM | 
3 | COc1cc2c(N3CCOCC3)nc(-c3ccccc3)nc2c(OC)c1OC | > 25 µM | > 25 µM | > 25 µM | > 25 µM | 
4 | COc1cc(-c2nc(-n3cnnc3)c3cc(OC)c(OC)c(OC)c3n2)cc(OC)c1OC | 5.45 µM | > 25 µM | > 25 µM | 23.4 µM | 
5 | COc1cc2c(-n3nnc4ccccc43)nc(-c3ccccc3)nc2c(OC)c1OC | 23.1 µM | > 25 µM | > 25 µM | 14.4 µM | 
6 | COc1cc(-c2nc(-n3nnc4ccccc43)c3cc(OC)c(OC)c(OC)c3n2)cc(OC)c1OC | > 25 µM | > 25 µM | > 25 µM | > 25 µM | 
7 | COc1cc2c(-n3cnnc3)nc(-c3ccccc3)nc2c(OC)c1OC | > 25 µM | > 25 µM | > 25 µM | > 25 µM | 
8 | COc1ccc(-c2nc(-n3ccnc3)c3cc(OC)c(OC)c(OC)c3n2)cc1OC | > 25 µM | > 25 µM | 18.7 µM | 22.1 µM | 
9 | COc1cc2c(-n3nnc4ccccc43)nc(-c3ccc(Br)cc3)nc2c(OC)c1OC | > 25 µM | > 25 µM | 10.2 µM | 15.2 µM | 
10 | COc1cc2c(-n3ccnc3)nc(-c3ccc(Cl)cc3)nc2c(OC)c1OC | 10.4 µM | > 25 µM | 8.53 µM | 2.16 µM | viability at 10 µM [2]: 34.9%; Activity [3]: 4.1%; inhibition [13]: Active; Activity [5]: 19.9%; Activity [6]: 41.1%; Activity [7]: 4.9%; Activity [8]: 11.5%; inhibition [14]: Dose-Dependent Effect; Activity [10]: 82.6%; Activity [11]: Active
11 | COc1cc2c(-n3nnc4ccccc43)nc(-c3ccc(Cl)cc3)nc2c(OC)c1OC | 13 µM | > 25 µM | > 25 µM | 16.2 µM | 
12 | COc1ccc(-c2nc(-n3nnc4ccccc43)c3cc(OC)c(OC)c(OC)c3n2)cc1 | > 25 µM | > 25 µM | > 25 µM | 18.1 µM | 
13 | COc1cc2c(-n3cnnc3)nc(-c3ccc(Br)cc3)nc2c(OC)c1OC | > 25 µM | > 25 µM | > 25 µM | 8.59 µM | 
14 | COc1cc2c(-n3ccnc3)nc(-c3ccccc3)nc2c(OC)c1OC | 15.2 µM | > 25 µM | 14.7 µM | 12.2 µM | 
15 | CC(=O)O[C@H]1C(=O)[C@@]2(C)[C@H]([C@H](OC(=O)c3ccccc3)[C@]3(O)C[C@H](OC(=O)[C@H](O)[C@@H](NC(=O)c4ccccc4)c4ccccc4)C(C)=C1C3(C)C)[C@]1(OC(C)=O)CO[C@@H]1C[C@@H]2O |  |  |  |  | inhibition [15]: Active
16 | COc1cc2c(-n3cnnc3)nc(-c3ccc(Cl)cc3)nc2c(OC)c1OC | > 25 µM | > 25 µM | 13.3 µM | 8.33 µM | 
17 | COc1ccc(-c2nc(-n3cnnc3)c3cc(OC)c(OC)c(OC)c3n2)cc1 | > 25 µM | > 25 µM | 10.3 µM | > 25 µM | 
18 | COc1cc2c(c(OC)c1OC)-c1ccc(OC)c(=O)cc1[C@@H](NC(C)=O)CC2 [COLCHICINE] |  | > 25 µM | 17.8 µM |  | viability at 10 µM [2]: 27.7%; Activity [3]: 2.8%; Activity [5]: 15.5%; Activity [6]: 54%; Activity [7]: 4.1%; Activity [8]: 5.4%; Activity [10]: 89.4%
